From ChEMBL document CHEMBL5046281, “N-Aryl Mercaptopropionamides as Broad-Spectrum Inhibitors of Metallo-β-Lactamases” (J Med Chem, 2022)
The source made the active and inactive calls. No cut-off for these calls is given here.

Tests used:
[1] = Lipophilicity, log D of the compound at pH 7.4 by HPLC-MS analysis; type: physicochemical; conditions: buffer
[2] = Inhibition of Escherichia coli IMP-7 using fluorocillin as substrate incubated for 30 mins by fluorescence based assay
[3] = biological target: BlaVIM-1 (Escherichia coli, UniProt Q8GDC1); experiment: Inhibition of Escherichia coli VIM-1 using fluorocillin as substrate incubated for 30 mins by fluorescence based assay
[4] = Inhibition of Escherichia coli NDM-1 using fluorocillin as substrate incubated for 30 mins by fluorescence based assay
[5] = test system: Escherichia coli; experiment: Antibacterial activity against IMP-1 expressing Escherichia coli isolates assessed as inhibition of bacterial growth by microdilution method; type: functional, organism-based
[6] = biological target: Disintegrin and metalloproteinase domain-containing protein 17 (Homo sapiens) (UniProt P78536); experiment: Inhibition of human TACE at 100 uM relative to control
Sequence of Disintegrin and metalloproteinase domain-containing protein 17 (Homo sapiens) (P78536 whole entry, the tested form may be a part): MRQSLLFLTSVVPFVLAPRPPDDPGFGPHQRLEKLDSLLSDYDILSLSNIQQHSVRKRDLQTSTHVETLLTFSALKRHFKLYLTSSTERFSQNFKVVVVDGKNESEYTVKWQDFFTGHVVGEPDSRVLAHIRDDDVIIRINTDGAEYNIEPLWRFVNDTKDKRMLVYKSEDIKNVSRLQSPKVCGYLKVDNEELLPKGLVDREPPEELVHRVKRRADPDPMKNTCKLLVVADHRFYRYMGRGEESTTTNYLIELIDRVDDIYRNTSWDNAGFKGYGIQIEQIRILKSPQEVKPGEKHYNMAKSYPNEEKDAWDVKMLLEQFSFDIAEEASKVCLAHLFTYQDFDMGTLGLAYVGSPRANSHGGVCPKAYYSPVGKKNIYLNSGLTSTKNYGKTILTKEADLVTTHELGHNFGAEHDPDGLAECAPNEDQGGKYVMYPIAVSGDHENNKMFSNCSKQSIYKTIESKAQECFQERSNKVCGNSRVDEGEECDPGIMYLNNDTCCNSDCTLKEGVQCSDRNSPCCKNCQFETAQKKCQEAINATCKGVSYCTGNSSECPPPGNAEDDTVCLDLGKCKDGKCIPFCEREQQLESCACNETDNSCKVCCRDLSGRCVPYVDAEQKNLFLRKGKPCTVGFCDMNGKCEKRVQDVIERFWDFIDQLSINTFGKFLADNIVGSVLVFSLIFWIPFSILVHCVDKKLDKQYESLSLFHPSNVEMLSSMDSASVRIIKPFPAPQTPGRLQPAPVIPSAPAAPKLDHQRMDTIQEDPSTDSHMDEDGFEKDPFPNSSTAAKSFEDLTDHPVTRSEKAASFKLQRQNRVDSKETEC

[7] = biological target: T1, Interstitial collagenase (Homo sapiens) (UniProt P03956); experiment: Inhibition of human MMP-1 at 100 uM relative to control
T1 sequence (whole entry): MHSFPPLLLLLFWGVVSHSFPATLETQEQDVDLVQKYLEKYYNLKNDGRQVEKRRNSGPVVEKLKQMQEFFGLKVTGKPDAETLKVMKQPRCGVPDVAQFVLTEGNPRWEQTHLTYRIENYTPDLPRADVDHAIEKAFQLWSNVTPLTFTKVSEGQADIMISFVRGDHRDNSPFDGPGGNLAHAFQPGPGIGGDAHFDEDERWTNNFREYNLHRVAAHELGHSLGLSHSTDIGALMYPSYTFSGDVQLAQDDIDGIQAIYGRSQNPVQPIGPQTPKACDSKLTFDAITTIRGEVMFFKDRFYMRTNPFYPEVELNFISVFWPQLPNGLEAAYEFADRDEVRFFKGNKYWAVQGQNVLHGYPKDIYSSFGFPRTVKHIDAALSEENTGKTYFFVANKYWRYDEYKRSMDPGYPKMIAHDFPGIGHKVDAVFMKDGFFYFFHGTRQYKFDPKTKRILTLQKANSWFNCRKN

[8] = test system: A549; experiment: Cytotoxicity against human A549 cells assessed as reduction in cell viability at 100 uM relative to control; type: toxicity, cell-based; conditions: a549, 100 µM
[9] = biological target: T2, 72 kDa type IV collagenase (Homo sapiens, UniProt P08253); experiment: Inhibition of human MMP-2
Target sequence in this assay (P08253 whole entry): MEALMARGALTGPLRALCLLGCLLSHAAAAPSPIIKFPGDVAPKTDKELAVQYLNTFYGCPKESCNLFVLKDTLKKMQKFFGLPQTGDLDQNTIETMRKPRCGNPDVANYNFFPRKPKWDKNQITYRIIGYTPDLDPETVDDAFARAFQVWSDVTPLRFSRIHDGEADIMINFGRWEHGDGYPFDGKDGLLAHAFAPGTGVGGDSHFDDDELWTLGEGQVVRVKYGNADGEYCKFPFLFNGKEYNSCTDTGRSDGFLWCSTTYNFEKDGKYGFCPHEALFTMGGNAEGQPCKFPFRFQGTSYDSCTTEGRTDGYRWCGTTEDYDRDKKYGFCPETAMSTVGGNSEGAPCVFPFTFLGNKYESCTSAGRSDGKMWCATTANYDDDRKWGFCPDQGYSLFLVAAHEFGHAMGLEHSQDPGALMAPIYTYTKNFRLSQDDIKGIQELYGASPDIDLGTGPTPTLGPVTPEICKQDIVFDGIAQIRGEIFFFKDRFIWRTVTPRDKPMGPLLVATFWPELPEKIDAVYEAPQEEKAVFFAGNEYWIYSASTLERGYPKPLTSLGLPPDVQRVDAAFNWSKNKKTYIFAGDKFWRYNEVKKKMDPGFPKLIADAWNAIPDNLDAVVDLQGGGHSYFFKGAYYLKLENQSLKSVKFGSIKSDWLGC

[10] = test system: Pseudomonas aeruginosa; experiment: Inhibition of Pseudomonas aeruginosa quorum sensing system LasB at 100 uM
[11] = biological target: Neutrophil collagenase (Homo sapiens) (UniProt P22894); experiment: Inhibition of human MMP-8 at 100 uM relative to control
Sequence of Neutrophil collagenase (Homo sapiens) (P22894 101-467 limits assumed): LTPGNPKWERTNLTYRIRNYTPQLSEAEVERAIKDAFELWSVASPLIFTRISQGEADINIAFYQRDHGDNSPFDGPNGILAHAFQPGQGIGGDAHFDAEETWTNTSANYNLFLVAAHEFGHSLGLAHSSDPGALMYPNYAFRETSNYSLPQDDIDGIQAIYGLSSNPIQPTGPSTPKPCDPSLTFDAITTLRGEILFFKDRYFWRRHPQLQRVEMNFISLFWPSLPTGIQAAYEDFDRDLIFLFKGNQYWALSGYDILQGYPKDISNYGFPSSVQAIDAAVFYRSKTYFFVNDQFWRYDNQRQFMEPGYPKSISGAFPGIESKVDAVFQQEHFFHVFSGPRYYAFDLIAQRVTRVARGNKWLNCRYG

[12] = biological target: T2, 72 kDa type IV collagenase; experiment: Inhibition of human MMP-2 at 100 uM relative to control
Target sequence in this assay (P08253 110-660 limits assumed): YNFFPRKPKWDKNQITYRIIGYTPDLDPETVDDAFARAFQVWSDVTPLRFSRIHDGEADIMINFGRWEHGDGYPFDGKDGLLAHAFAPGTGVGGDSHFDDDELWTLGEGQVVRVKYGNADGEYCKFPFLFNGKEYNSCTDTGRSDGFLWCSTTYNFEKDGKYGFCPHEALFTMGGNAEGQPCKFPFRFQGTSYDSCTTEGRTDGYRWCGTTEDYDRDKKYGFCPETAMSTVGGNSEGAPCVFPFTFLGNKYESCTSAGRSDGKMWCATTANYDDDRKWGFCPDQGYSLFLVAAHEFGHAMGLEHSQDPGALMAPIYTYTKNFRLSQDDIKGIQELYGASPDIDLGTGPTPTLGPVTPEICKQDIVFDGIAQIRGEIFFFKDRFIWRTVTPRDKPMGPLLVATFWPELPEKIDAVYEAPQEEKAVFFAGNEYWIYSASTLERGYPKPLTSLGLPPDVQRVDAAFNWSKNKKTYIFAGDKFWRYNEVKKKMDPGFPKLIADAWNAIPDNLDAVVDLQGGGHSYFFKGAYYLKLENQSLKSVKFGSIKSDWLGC

[13] = test system: Pseudomonas aeruginosa; experiment: Antibacterial activity against VIM-2 expressing Pseudomonas aeruginosa isolates assessed as inhibition of bacterial growth by microdilution method; type: functional, organism-based
[14] = Toxicity in zebrafish embryo assessed as maximum tolerated concentration measured up to 120 hrs; set-up: species or system Danio rerio; conditions: in vivo, read-out: MTC
[15] = biological target: T3, Matrix metalloproteinase-14 (Homo sapiens, UniProt P50281); experiment: Inhibition of human MMP-14
[16] = biological target: Stromelysin-1 (Homo sapiens) (UniProt P08254); experiment: Inhibition of human MMP-3 at 100 uM relative to control
Sequence of Stromelysin-1 (Homo sapiens) (P08254 100-477 limits assumed): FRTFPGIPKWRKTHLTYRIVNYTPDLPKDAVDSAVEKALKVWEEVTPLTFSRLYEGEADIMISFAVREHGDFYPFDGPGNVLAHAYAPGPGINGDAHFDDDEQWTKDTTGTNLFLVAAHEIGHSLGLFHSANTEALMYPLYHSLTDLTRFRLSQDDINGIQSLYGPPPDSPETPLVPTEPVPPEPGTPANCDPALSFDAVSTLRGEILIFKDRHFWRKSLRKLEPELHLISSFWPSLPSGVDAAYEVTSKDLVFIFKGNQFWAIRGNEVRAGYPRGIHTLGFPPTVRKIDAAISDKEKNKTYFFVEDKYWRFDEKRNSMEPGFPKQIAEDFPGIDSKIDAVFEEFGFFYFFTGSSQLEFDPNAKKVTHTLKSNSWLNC

[17] = test system: Escherichia coli; experiment: Antibacterial activity against NDM-1 expressing Escherichia coli isolates assessed as inhibition of bacterial growth by microdilution method; type: functional, organism-based
[18] = test system: HEK293; experiment: Cytotoxicity against human HEK293 cells assessed as reduction in cell viability at 100 uM relative to control; type: toxicity, cell-based; conditions: hek293, 100 µM
[19] = test system: HepG2; experiment: Cytotoxicity against human HepG2 cells assessed as reduction in cell viability at 100 uM relative to control; type: toxicity, cell-based; conditions: hepg2, 100 µM
[20] = biological target: T4, Matrilysin (Homo sapiens) (UniProt P09237); experiment: Inhibition of human MMP-7 at 100 uM relative to control
T4 sequence (whole entry): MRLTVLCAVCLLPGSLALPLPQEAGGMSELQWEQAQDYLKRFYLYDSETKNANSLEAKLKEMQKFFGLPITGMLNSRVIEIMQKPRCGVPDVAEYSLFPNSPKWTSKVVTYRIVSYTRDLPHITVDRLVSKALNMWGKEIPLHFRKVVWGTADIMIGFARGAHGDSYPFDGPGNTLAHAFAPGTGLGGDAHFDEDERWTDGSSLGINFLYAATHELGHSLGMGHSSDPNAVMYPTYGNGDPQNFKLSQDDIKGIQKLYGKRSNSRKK

[21] = biological target: T3, Matrix metalloproteinase-14; experiment: Inhibition of human MMP-14 at 100 uM relative to control
[22] = test system: Escherichia coli; experiment: Antibacterial activity against VIM-1 expressing Escherichia coli isolates assessed as inhibition of bacterial growth by microdilution method; type: functional, organism-based

Compound | logD [1] | IC50 [2] [nM] | IC50 [3] [nM] | IC50 [4] [nM] | Activity [5] | Activity [13] | Activity [17] | Activity [22] | further results
O=C(CCS)Nc1cccc(O)c1 | 0.41 | 1400 | 100 | 2700 | – | – | – | – | –
O=C(CCS)Nc1cccc([N+](=O)[O-])c1 | 2.21 | 2600 | 100 | 2500 | – | – | – | – | –
CS(=O)(=O)Nc1ccccc1NC(=O)CCS | 1.1 | > 10000 | 1900 | 7000 | – | – | – | – | –
O=C(O)[C@H]1CCCCN1C(=O)C(CS)Cc1ccccc1 (stereo partly drawn) | 0.49 | 4600 | 900 | 700 | – | – | – | – | –
Nc1ccc(NC(=O)CCS)cc1 | -0.31 | 2100 | 500 | 6500 | – | – | – | – | –
CN1CCN(Cc2ccc(NC(=O)CCS)cc2)CC1 | 0.28 | 5800 | 1500 | 6400 | – | – | – | – | –
O=C(CCS)Nc1ccc(C(=O)O)cc1 | -1.65 | > 10000 | 600 | 1000 | – | – | – | – | –
O=C(CCS)Nc1ccc(S(=O)(=O)N2CCOCC2)cc1 | 1.52 | 7100 | 1700 | 2500 | – | – | – | – | –
NC(=O)NS(=O)(=O)c1ccc(NC(=O)CCS)cc1 | -1.69 | 12600 | 2000 | 8600 | inactive | inactive | inactive | inactive | inhibition [6]: < 10%; inhibition [7]: < 10%; Activity [8]: < 10%; IC50 [9]: 64000 nM; inhibition [10]: Active; inhibition [11]: < 10%; inhibition [12]: 88%; MNTC at 120 h [14]: ≥ 150 µM; IC50 [15]: 31000 nM; inhibition [16]: < 10%; Activity [18]: < 10%; Activity [19]: < 10%; inhibition [20]: 32%; inhibition [21]: 73%
N=C(N)NS(=O)(=O)c1ccc(NC(=O)CCS)cc1 | -0.5 | 3300 | 500 | 2100 | inactive | inactive | inactive | inactive | inhibition [6]: 32%; inhibition [7]: < 10%; Activity [8]: < 10%; inhibition [11]: < 10%; inhibition [12]: < 10%; MNTC at 120 h [14]: ≥ 150 µM; inhibition [16]: < 10%; Activity [18]: < 10%; Activity [19]: < 10%; inhibition [20]: < 10%; inhibition [21]: < 10%
COC(=O)c1ccccc1NC(=O)CCS | 1.95 | 1000 | 10000 | 1300 | – | – | – | – | –
O=C(CCS)Nc1ccc(Cl)c(Cl)c1 | 5.34 | 5000 | 100 | 1300 | inactive | inactive | inactive | inactive | inhibition [7]: < 10%; Activity [8]: < 10%; inhibition [10]: Active; inhibition [11]: 22%; inhibition [12]: 14%; inhibition [16]: < 10%; Activity [18]: < 10%; Activity [19]: < 10%; inhibition [20]: < 10%; inhibition [21]: 18%
O=C(CCS)Nc1cccc(S(=O)(=O)O)c1 | -1.35 | 3600 | 1600 | 1300 | inactive | inactive | inactive | inactive | –
CC(=O)c1ccc(NC(=O)CCS)cc1 | 1.35 | 5500 | 400 | 1500 | – | – | – | – | –
CCN(CC)Cc1cccc(NC(=O)CCS)c1 | 0.24 | 5500 | 800 | 6500 | – | – | – | – | –
O=C(CCS)Nc1ccc(O)cc1 | 0.32 | 3400 | 200 | 4000 | – | – | – | – | –
O=C(CCS)Nc1ccccc1O | 1.14 | 3300 | 200 | 2200 | – | – | – | – | –
COC(=O)c1ccc(NC(=O)CCS)cc1 | 1.95 | 1100 | 100 | 2800 | – | – | – | – | inhibition [10]: Active
CN(C)S(=O)(=O)c1ccc(NC(=O)CCS)cc1 | 1.7 | 2100 | 800 | 2800 | inactive | inactive | inactive | inactive | –
NCc1cccc(NC(=O)CCS)c1 | 0.28 | 5100 | 1000 | 5500 | inactive | inactive | inactive | inactive | –
O=C(CCS)Nc1ccccc1C(=O)O | -0.92 | 4100 | 2200 | 3400 | inactive | inactive | inactive | inactive | inhibition [6]: < 10%; inhibition [7]: < 10%; Activity [8]: < 10%; inhibition [11]: < 10%; inhibition [12]: < 10%; MNTC at 120 h [14]: ≥ 150 µM; IC50 [15]: 12000 nM; inhibition [16]: 17%; Activity [18]: < 10%; Activity [19]: < 10%; inhibition [20]: 11%; inhibition [21]: 77%
CS(=O)(=O)Nc1cccc(NC(=O)CCS)c1 | 0.62 | – | 1300 | 2200 | – | – | – | – | –
